# Results taken from patent US20240376114A1, “NUCLEAR TRANSPORT MODULATORS AND USES THEREOF” (Karyopharm Therapeutics Inc., priority 2011, published 2024).
# Test: CellTiter 96 AQueous One Solution (MTS) cell proliferation assay
# Assay type: cell-based
# Details: human, MM.1S multiple myeloma cells; MM.1S cells, 72 h treatment; read-out: Cytotoxicity [EC50]
# Text: The CellTiter 96® AQueous One Solution cell proliferation assay (Promega) was used on MM.1S multiple myeloma cell line to study the cytotoxic and cytostatic properties of the compounds. The assay is based on the cleavage of the tetrazolium salt, MTS, in the presence of an electron-coupling reagent PES (phenazine ethosulfate). The MTS tetrazolium compound is bioreduced by cells into a colored formazan product that is soluble in tissue culture medium. This conversion is presumably accomplished by NADPH or NADH produced by dehydrogenase enzymes in metabolically active cells. Assays are performed by adding a small amount of the CellTiter 96® AQueous One solution reagent directly to culture wells, incubating for 1-4 hours and then recording the absorbance at 490 nm with a 96-well plate reader.
# The cells were seeded at 5×10^3 to 1.5×10^4 cells (depending on cell type) in each well of a 96-well plate in 100 μL of fresh culture medium and adherent cells were allowed to attach overnight. The stock solutions of the compounds were diluted in cell culture medium to obtain eight concentrations of each drug, ranging from 1 nM to 30 μM and DMSO at less than 1% v/v was used as a negative control. The resulting drug solutions were transferred onto the cells. After 72 h of treatment, 20 μl of CellTiter 96® AQueous reagent was added into each well of the 96-well assay plates and the plate was incubated at 37° C. for 1-4 hours in a humidified, 5% CO2 atmosphere. Then the absorbance of each well was recorded at 490 nm using a 96-well plate reader. In most cases, the assay was performed in triplicate and the results were presented as half maximal inhibitory concentration (IC50). Optical density versus compound concentration was plotted and analyzed using non-linear regression equations (IDBS XLfit) and the IC50 for each compound was calculated.
row,SMILES,EC50 at 72 h [µM]
1,"O=C(/C=C\c1n[nH]c(-c2cc(C(F)(F)F)cc(C(F)(F)F)c2)n1)N1CC(F)(F)C1 [Compound 12, (Z)-3-(5-(3,5-bis(trifluoromethyl)phenyl)-4H-1,2,4-triazol-3-yl)-1-(3,3-difluoroazetidin-1-yl)prop-2-en-1-one]",1 to 10
2,"Cc1ncc(CNC(=O)/C=C\n2cnc(-c3cc(C(F)(F)F)cc(C(F)(F)F)c3)n2)cn1 [Compound 13, (Z)-3-(3-(3,5-bis(trifluoromethyl)phenyl)-1H-1,2,4-triazol-1-yl)-N-((2-methylpyrimidin-5-yl)methyl)acrylamide]",1 to 10
3,"O=C(/C=C\n1cnc(-c2cc(C(F)(F)F)cc(C(F)(F)F)c2)n1)NCc1cncnc1 [Compound 14, (Z)-3-(3-(3,5-bis(trifluoromethyl)phenyl)-1H-1,2,4-triazol-1-yl)-N-(pyrimidin-5-ylmethyl)acrylamide]",< 1
4,"O=C(/C=C\n1cnc(-c2cc(C(F)(F)F)cc(C(F)(F)F)c2)c1)N1CC(F)(F)C1 [Compound 16, (Z)-3-(4-(3,5-bis(trifluoromethyl)phenyl)-1H-imidazol-1-yl)-1-(3,3-difluoroazetidin-1-yl)prop-2-en-1-one]",< 1
5,"CN(Cc1cncnc1)C(=O)/C=C\n1cnc(-c2cc(C(F)(F)F)cc(C(F)(F)F)c2)n1 [Compound 17, (Z)-3-(3-(3,5-bis(trifluoromethyl)phenyl)-1H-1,2,4-triazol-1-yl)-N-methyl-N-(pyrimidin-5-ylmethyl)acrylamide]",1 to 10
6,"Cc1ncc(CN(C)C(=O)/C=C\n2cnc(-c3cc(C(F)(F)F)cc(C(F)(F)F)c3)n2)cn1 [Compound 18, (Z)-3-(3-(3,5-bis(trifluoromethyl)phenyl)-1H-1,2,4-triazol-1-yl)-N-methyl-N-((2-methylpyrimidin-5-yl)methyl)acrylamide]",1 to 10
7,"O=C(/C=C\n1cnc(-c2cc(C(F)(F)F)cc(C(F)(F)F)c2)n1)NCC1CCCNC1 (centres unmarked) [Compound 19, (Z)-3-(3-(3,5-bis(trifluoromethyl)phenyl)-1H-1,2,4-triazol-1-yl)-N-(piperidin-3-ylmethyl)acrylamide]",1 to 10
8,"O=C(/C=C\n1cnc(-c2cc(C(F)(F)F)cc(C(F)(F)F)c2)n1)N1CCC(F)(F)C1 [Compound 20, (Z)-3-(3-(3,5-bis(trifluoromethyl)phenyl)-1H-1,2,4-triazol-1-yl)-1-(3,3-difluoropyrrolidin-1-yl)prop-2-en-1-one]",< 1
9,"CN(Cc1cnco1)C(=O)/C=C\n1cnc(-c2cc(C(F)(F)F)cc(C(F)(F)F)c2)n1 [Compound 22, (Z)-3-(3-(3,5-bis(trifluoromethyl)phenyl)-1H-1,2,4-triazol-1-yl)-N-methyl-N-(oxazol-5-ylmethyl)acrylamide]",1 to 10
10,"O=C(/C=C\n1cnc(-c2cc(C(F)(F)F)cc(C(F)(F)F)c2)n1)N1CC(c2ccccn2)C1 [Compound 24, (Z)-3-(3-(3,5-bis(trifluoromethyl)phenyl)-1H-1,2,4-triazol-1-yl)-1-(3-(pyridin-2-yl)azetidin-1-yl)prop-2-en-1-one]",< 1
11,"CN1CCC(CNC(=O)/C=C\n2cnc(-c3cc(C(F)(F)F)cc(C(F)(F)F)c3)n2)CC1 [Compound 26, (Z)-3-(3-(3,5-bis(trifluoromethyl)phenyl)-1H-1,2,4-triazol-1-yl)-N-((1-methylpiperidin-4-yl)methyl)acrylamide]",< 1
12,"CN1CCCC(CNC(=O)/C=C\n2cnc(-c3cc(C(F)(F)F)cc(C(F)(F)F)c3)n2)C1 (centres unmarked) [Compound 27, (Z)-3-(3-(3,5-bis(trifluoromethyl)phenyl)-1H-1,2,4-triazol-1-yl)-N-((1-methylpiperidin-3-yl)methyl)acrylamide]",< 1
13,"O=C(/C=C\n1cnc(-c2cc(C(F)(F)F)cc(C(F)(F)F)c2)n1)NC1CCc2ncccc21 (centres unmarked) [Compound 28, (Z)-3-(3-(3,5-bis(trifluoromethyl)phenyl)-1H-1,2,4-triazol-1-yl)-N-(6,7-dihydro-5H-cyclopenta[b]pyridin-5-yl)acrylamide]",1 to 10
14,"CC(NC(=O)/C=C\n1cnc(-c2cc(C(F)(F)F)cc(C(F)(F)F)c2)n1)c1cnccn1 (centres unmarked) [Compound 29, (Z)-3-(3-(3,5-bis(trifluoromethyl)phenyl)-1H-1,2,4-triazol-1-yl)-N-(1-(pyrazin-2-yl)ethyl)acrylamide]",1 to 10
15,"CN1CCC(CNC(=O)/C=C\n2cnc(-c3cc(C(F)(F)F)cc(C(F)(F)F)c3)n2)C1 (centres unmarked) [Compound 30, (Z)-3-(3-(3,5-bis(trifluoromethyl)phenyl)-1H-1,2,4-triazol-1-yl)-N-((1-methylpyrrolidin-3-yl)methyl)acrylamide]",< 1
16,"Cc1ncc(CNC(=O)/C=C\n2cnc(-c3cc(C(F)(F)F)cc(C(F)(F)F)c3)n2)c(C)n1 [Compound 31, (Z)-3-(3-(3,5-bis(trifluoromethyl)phenyl)-1H-1,2,4-triazol-1-yl)-N-((2,4-dimethylpyrimidin-5-yl)methyl)acrylamide]",< 1
17,"O=C(/C=C\n1ccc(-c2cc(C(F)(F)F)cc(C(F)(F)F)c2)n1)N1CC(F)(F)C1 [Compound 35, (Z)-3-(3-(3,5-bis(trifluoromethyl)phenyl)-1H-pyrazol-1-yl)-1-(3,3-difluoroazetidin-1-yl)prop-2-en-1-one]",< 1
18,"[2H]/C(=C/n1nc(-c2cc(C(F)(F)F)cc(C(F)(F)F)c2)nc1[2H])C(=O)N1CC(F)(F)C1 [Compound 40, D2-(Z)-3-(3-(3,5-bis(trifluoromethyl)phenyl)-1H-1,2,4-triazol-1-yl)-1-(3,3-difluoroazetidin-1-yl)prop-2-en-1-one]",< 1
19,"O=C(/C=C\N1CCC(c2cc(C(F)(F)F)cc(C(F)(F)F)c2)C1)N1CC(F)(F)C1 (centres unmarked) [Compound 43, (Z)-3-(3-(3,5-bis(trifluoromethyl)phenyl)pyrrolidin-1-yl)-1-(3,3-difluoroazetidin-1-yl)prop-2-en-1-one]",> 10
20,"O=C1CC(c2cc(C(F)(F)F)cc(C(F)(F)F)c2)CN1/C=C/C(=O)N1CC(F)(F)C1 (centres unmarked) [Compound 44, (E)-4-(3,5-bis(trifluoromethyl)phenyl)-1-(3-(3,3-difluoroazetidin-1-yl)-3-oxoprop-1-enyl)pyrrolidin-2-one]",> 10
21,"O=C(/C=C\n1cnc(-c2cc(C(F)(F)F)cc(C(F)(F)F)c2)n1)N1CC(O)(C(F)(F)F)C1 [Compound 51, (Z)-3-(3-(3,5-bis(trifluoromethyl)phenyl)-1H-1,2,4-triazol-1-yl)-1-(3-hydroxy-3-(trifluoromethyl)azetidin-1-yl)prop-2-en-1-one]",< 1
22,"O=C(/C=C\n1cnc(-c2cc(C(F)(F)F)cc(C(F)(F)F)c2)n1)N1CC2(CNC2)C1 [Compound 52, (Z)-3-(3-(3,5-bis(trifluoromethyl)phenyl)-1H-1,2,4-triazol-1-yl)-1-(2,6-diazaspiro[3.3]heptan-2-yl)prop-2-en-1-one 2,2,2-trifluoroacetate]",< 1
23,"O=C(/C=C\n1cnc(-c2cc(C(F)(F)F)cc(C(F)(F)F)c2)n1)N1CC(O)C1 [Compound 53, (Z)-3-(3-(3,5-bis(trifluoromethyl)phenyl)-1H-1,2,4-triazol-1-yl)-1-(3-hydroxyazetidine-1-yl)prop-2-en-1-one]",< 1
24,"N#CC1CN(C(=O)/C=C\n2cnc(-c3cc(C(F)(F)F)cc(C(F)(F)F)c3)n2)C1 [Compound 54, (Z)-1-(3-(3-(3,5-bis(trifluoromethyl)phenyl)-1H-1,2,4-triazol-1-yl)acryloyl)azetidine-3-carbonitrile]",< 1
25,"O=C(O)C1CN(C(=O)/C=C\n2cnc(-c3cc(C(F)(F)F)cc(C(F)(F)F)c3)n2)C1 [Compound 55, (Z)-1-(3-(3-(3,5-bis(trifluoromethyl)phenyl)-1H-1,2,4-triazol-1-yl)acryloyl)azetidine-3-carboxylic acid]",1 to 10
26,"NC1C2CN(C(=O)/C=C\n3cnc(-c4cc(C(F)(F)F)cc(C(F)(F)F)c4)n3)CC12 (centres unmarked) [Compound 57, (Z)-1-(6-amino-3-azabicyclo[3.1.0]hexan-3-yl)-3-(3-(3,5-bis(trifluoromethyl)phenyl)-1H-1,2,4-triazol-1-yl)prop-2-en-1-one]",< 1
27,"O=C(/C=C\n1cnc(-c2cc(C(F)(F)F)cc(C(F)(F)F)c2)n1)N1CCC2(CNC2)C1 [Compound 58, (Z)-3-(3-(3,5-bis(trifluoromethyl)phenyl)-1H-1,2,4-triazol-1-yl)-1-(2,6-diazaspiro[3.4]octan-6-yl)prop-2-en-1-one 2,2,2-trifluoroacetate]",< 1
28,"O=C(/C=C\n1cnc(-c2cc(C(F)(F)F)c(Cl)c(C(F)(F)F)c2)n1)N1CC(F)(F)C1 [Compound 59, (Z)-3-(3-(4-chloro-3,5-bis(trifluoromethyl)phenyl)-1H-1,2,4-triazol-1-yl)-1-(3,3-difluoroazetidin-1-yl)prop-2-en-1-one]",< 1
29,"COC(=O)C1(F)CN(C(=O)/C=C\n2cnc(-c3cc(C(F)(F)F)cc(C(F)(F)F)c3)n2)C1 [Compound 61, (Z)-methyl 1-(3-(3-(3,5-bis(trifluoromethyl)phenyl)-1H-1,2,4-triazol-1-yl)acryloyl)-3-fluoroazetidine-3-carboxylate]",< 1
